{"source": "ChEMBL document CHEMBL5325407", "about": "“Structure-based development of potent Plasmodium falciparum M1 and M17 aminopeptidase selective and dual inhibitors via S1'-region optimisation” (Eur J Med Chem, 2023)", "key": {"[1]": {"experiment": "(§1) Inhibition of C-terminal 6-His tagged Plasmodium falciparum M17 aminopeptidase (85 to 605 residues) expressed in Escherichia coli BL21 (DE3) cells using H-Leu-NHMec as substrate assessed as apparent inhibition constant preincubated for 10 mins followed by substrate addition by spectrofluorimetric analysis", "details": "read-out: Ki(app)"}, "[2]": {"experiment": "as §1, with “M1” for “M17”, “(195” for “(85”, “1085” for “605”, “BL21(DE3)” for “BL21 (DE3)”", "details": "read-out: Ki(app)"}, "[3]": {"tested_on": "Plasmodium falciparum", "experiment": "Antiplasmodial activity against drug-sensitive Plasmodium falciparum 3D7 infected in Red blood cell assessed as growth inhibition measured after 72 hrs by LDH assay", "format": "functional, organism-based", "details": "3D7, Erythrocyte"}}}
{"smiles": "O=C(CN1CCCCC1)NC(C(=O)NO)c1ccc(-c2cc(F)c(F)c(F)c2)cc1", "note": "(stereo not given)", "values": [{"measurement": "Ki", "setting": "[1]", "value": "> 500", "unit": "nM"}, {"measurement": "Ki", "setting": "[2]", "value": "> 500", "unit": "nM"}]}
{"smiles": "CC(C)(C)NC(=O)NC(C(=O)NO)c1ccc(-c2cc(F)c(F)c(F)c2)cc1", "note": "(stereo not given)", "values": [{"measurement": "Ki", "setting": "[1]", "value": 430, "unit": "nM"}, {"measurement": "Ki", "setting": "[2]", "value": "> 500", "unit": "nM"}]}
{"smiles": "CN(CC(=O)NC(C(=O)NO)c1ccc(-c2cc(F)c(F)c(F)c2)cc1)c1ccccc1", "note": "(stereo not given)", "values": [{"measurement": "Ki", "setting": "[1]", "value": "> 500", "unit": "nM"}, {"measurement": "Ki", "setting": "[2]", "value": "> 500", "unit": "nM"}]}
{"smiles": "CN(C)CC(=O)NC(C(=O)NO)c1ccc(-c2cc(F)c(F)c(F)c2)cc1", "note": "(stereo not given)", "values": [{"measurement": "EC50", "setting": "[3]", "value": 480, "unit": "nM"}, {"measurement": "Ki", "setting": "[1]", "value": "> 500", "unit": "nM"}, {"measurement": "Ki", "setting": "[2]", "value": 185, "unit": "nM"}]}
{"smiles": "O=C(CNc1cc(F)cc(F)c1)NC(C(=O)NO)c1ccc(Br)cc1", "note": "(stereo not given)", "values": [{"measurement": "EC50", "setting": "[3]", "value": 250, "unit": "nM"}, {"measurement": "Ki", "setting": "[1]", "value": "> 500", "unit": "nM"}, {"measurement": "Ki", "setting": "[2]", "value": 16, "unit": "nM"}]}
{"smiles": "CN(C)C(C)(C)C(=O)NC(C(=O)NO)c1ccc(-c2cc(F)c(F)c(F)c2)cc1", "note": "(stereo not given)", "values": [{"measurement": "Ki", "setting": "[1]", "value": "> 500", "unit": "nM"}, {"measurement": "Ki", "setting": "[2]", "value": "> 500", "unit": "nM"}]}
{"smiles": "O=C(CNc1ccccc1)NC(C(=O)NO)c1ccc(Cl)cc1", "note": "(stereo not given)", "values": [{"measurement": "EC50", "setting": "[3]", "value": 200, "unit": "nM"}, {"measurement": "Ki", "setting": "[1]", "value": "> 500", "unit": "nM"}, {"measurement": "Ki", "setting": "[2]", "value": 79, "unit": "nM"}]}
{"smiles": "O=C(CSc1ccccc1)NC(C(=O)NO)c1ccc(Br)cc1", "note": "(stereo not given)", "values": [{"measurement": "EC50", "setting": "[3]", "value": 230, "unit": "nM"}, {"measurement": "Ki", "setting": "[1]", "value": 287, "unit": "nM"}, {"measurement": "Ki", "setting": "[2]", "value": 68, "unit": "nM"}]}
{"smiles": "CN(C)C(C)(C)CC(=O)NC(C(=O)NO)c1ccc(-c2cc(F)c(F)c(F)c2)cc1", "note": "(stereo not given)", "values": [{"measurement": "EC50", "setting": "[3]", "value": 825, "unit": "nM"}, {"measurement": "Ki", "setting": "[1]", "value": 293, "unit": "nM"}, {"measurement": "Ki", "setting": "[2]", "value": 500, "unit": "nM"}]}
{"smiles": "O=C(NC1CCCC1)NC(C(=O)NO)c1ccc(-c2cc(F)c(F)c(F)c2)cc1", "note": "(stereo not given)", "values": [{"measurement": "EC50", "setting": "[3]", "value": 370, "unit": "nM"}, {"measurement": "Ki", "setting": "[1]", "value": 122, "unit": "nM"}, {"measurement": "Ki", "setting": "[2]", "value": 311, "unit": "nM"}]}
{"smiles": "CC(C)(N)CC(=O)NC(C(=O)NO)c1ccc(-c2cc(F)c(F)c(F)c2)cc1", "note": "(stereo not given)", "values": [{"measurement": "EC50", "setting": "[3]", "value": 1350, "unit": "nM"}, {"measurement": "Ki", "setting": "[1]", "value": 28, "unit": "nM"}, {"measurement": "Ki", "setting": "[2]", "value": 320, "unit": "nM"}]}
{"smiles": "O=C(CCc1ccccc1)NC(C(=O)NO)c1ccc(Br)cc1", "note": "(stereo not given)", "values": [{"measurement": "EC50", "setting": "[3]", "value": 205, "unit": "nM"}, {"measurement": "Ki", "setting": "[1]", "value": 14, "unit": "nM"}, {"measurement": "Ki", "setting": "[2]", "value": 222, "unit": "nM"}]}
{"smiles": "O=C(NC(C(=O)NO)c1ccc(-c2cc(F)c(F)c(F)c2)cc1)C1CCO1", "note": "(stereo not given)", "values": [{"measurement": "EC50", "setting": "[3]", "value": 350, "unit": "nM"}, {"measurement": "Ki", "setting": "[1]", "value": "> 500", "unit": "nM"}, {"measurement": "Ki", "setting": "[2]", "value": 203, "unit": "nM"}]}
{"smiles": "COc1ccc(NCC(=O)NC(C(=O)NO)c2ccc(-c3cc(F)c(F)c(F)c3)cc2)cc1", "note": "(stereo not given)", "values": [{"measurement": "Ki", "setting": "[1]", "value": "> 500", "unit": "nM"}, {"measurement": "Ki", "setting": "[2]", "value": "> 500", "unit": "nM"}]}
{"smiles": "CC(C)(N)C(=O)NC(C(=O)NO)c1ccc(-c2cc(F)c(F)c(F)c2)cc1", "note": "(stereo not given)", "values": [{"measurement": "EC50", "setting": "[3]", "value": 1200, "unit": "nM"}, {"measurement": "Ki", "setting": "[1]", "value": "> 500", "unit": "nM"}, {"measurement": "Ki", "setting": "[2]", "value": 227, "unit": "nM"}]}
{"smiles": "CN1CCC(C(=O)NC(C(=O)NO)c2ccc(-c3cc(F)c(F)c(F)c3)cc2)C1", "note": "(stereo not given)", "values": [{"measurement": "Ki", "setting": "[1]", "value": "> 500", "unit": "nM"}, {"measurement": "Ki", "setting": "[2]", "value": "> 500", "unit": "nM"}]}
{"smiles": "O=C(NC(C(=O)NO)c1ccc(Br)cc1)c1cc2ccccc2[nH]1", "note": "(stereo not given)", "values": [{"measurement": "Ki", "setting": "[1]", "value": "> 500", "unit": "nM"}, {"measurement": "Ki", "setting": "[2]", "value": "> 500", "unit": "nM"}]}
{"smiles": "CCN(CC)CCCC(C)Nc1ccnc2cc(Cl)ccc12", "note": "(stereo not given) [CHLOROQUINE]", "values": [{"measurement": "EC50", "setting": "[3]", "value": 33, "unit": "nM"}]}
{"smiles": "CN1CCC1C(=O)NC(C(=O)NO)c1ccc(-c2cc(F)c(F)c(F)c2)cc1", "note": "(stereo not given)", "values": [{"measurement": "Ki", "setting": "[1]", "value": "> 500", "unit": "nM"}, {"measurement": "Ki", "setting": "[2]", "value": "> 500", "unit": "nM"}]}
{"smiles": "CC(C)(C)C(=O)NC(C(=O)NO)c1ccc(-c2cc(F)c(F)c(F)c2)cc1", "note": "(stereo not given)", "values": [{"measurement": "EC50", "setting": "[3]", "value": 340, "unit": "nM"}]}
{"smiles": "COc1ccccc1NCC(=O)NC(C(=O)NO)c1ccc(-c2cc(F)c(F)c(F)c2)cc1", "note": "(stereo not given)", "values": [{"measurement": "Ki", "setting": "[1]", "value": "> 500", "unit": "nM"}, {"measurement": "Ki", "setting": "[2]", "value": "> 500", "unit": "nM"}]}
{"smiles": "O=C(NC(C(=O)NO)c1ccc(-c2cc(F)c(F)c(F)c2)cc1)C1CCNC1", "note": "(stereo not given)", "values": [{"measurement": "Ki", "setting": "[1]", "value": "> 500", "unit": "nM"}, {"measurement": "Ki", "setting": "[2]", "value": "> 500", "unit": "nM"}]}
{"smiles": "O=C(CNc1ccc(F)cc1)NC(C(=O)NO)c1ccc(-c2cc(F)c(F)c(F)c2)cc1", "note": "(stereo not given)", "values": [{"measurement": "Ki", "setting": "[1]", "value": "> 500", "unit": "nM"}, {"measurement": "Ki", "setting": "[2]", "value": "> 500", "unit": "nM"}]}
{"smiles": "O=C(CNc1ccc(F)c(F)c1)NC(C(=O)NO)c1ccc(Br)cc1", "note": "(stereo not given)", "values": [{"measurement": "Ki", "setting": "[1]", "value": "> 500", "unit": "nM"}, {"measurement": "Ki", "setting": "[2]", "value": "> 500", "unit": "nM"}]}
{"smiles": "O=C(NC(C(=O)NO)c1ccc(-c2cc(F)c(F)c(F)c2)cc1)C1CNC1", "note": "(stereo not given)", "values": [{"measurement": "Ki", "setting": "[1]", "value": "> 500", "unit": "nM"}, {"measurement": "Ki", "setting": "[2]", "value": "> 500", "unit": "nM"}]}
{"smiles": "COc1cccc(NCC(=O)NC(C(=O)NO)c2ccc(-c3cc(F)c(F)c(F)c3)cc2)c1", "note": "(stereo not given)", "values": [{"measurement": "Ki", "setting": "[1]", "value": "> 500", "unit": "nM"}, {"measurement": "Ki", "setting": "[2]", "value": "> 500", "unit": "nM"}]}
{"smiles": "O=C(NC(C(=O)NO)c1ccc(-c2cc(F)c(F)c(F)c2)cc1)C1CCN1", "note": "(stereo not given)", "values": [{"measurement": "Ki", "setting": "[1]", "value": "> 500", "unit": "nM"}, {"measurement": "Ki", "setting": "[2]", "value": "> 500", "unit": "nM"}]}
{"smiles": "CN1CC(C(=O)NC(C(=O)NO)c2ccc(-c3cc(F)c(F)c(F)c3)cc2)C1", "note": "(stereo not given)", "values": [{"measurement": "Ki", "setting": "[1]", "value": "> 500", "unit": "nM"}, {"measurement": "Ki", "setting": "[2]", "value": "> 500", "unit": "nM"}]}
{"smiles": "O=C(CNc1ccc(F)c(F)c1)NC(C(=O)NO)c1ccc(-c2cc(F)c(F)c(F)c2)cc1", "note": "(stereo not given)", "values": [{"measurement": "Ki", "setting": "[1]", "value": "> 500", "unit": "nM"}, {"measurement": "Ki", "setting": "[2]", "value": "> 500", "unit": "nM"}]}
{"smiles": "CN1CCCC1C(=O)NC(C(=O)NO)c1ccc(-c2cc(F)c(F)c(F)c2)cc1", "note": "(stereo not given)", "values": [{"measurement": "Ki", "setting": "[1]", "value": "> 500", "unit": "nM"}, {"measurement": "Ki", "setting": "[2]", "value": "> 500", "unit": "nM"}]}
{"smiles": "O=C(CNc1cccc(F)c1)NC(C(=O)NO)c1ccc(-c2cc(F)c(F)c(F)c2)cc1", "note": "(stereo not given)", "values": [{"measurement": "Ki", "setting": "[1]", "value": "> 500", "unit": "nM"}, {"measurement": "Ki", "setting": "[2]", "value": "> 500", "unit": "nM"}]}
